From the supplement of paper PMC10307832

What was measured:
Test in all cases: relative viability (nuclei count vs DMSO), 5 days (fraction); higher = more cells survive
[1] = system: 201T
Outline: (§1)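 One day after seeding in 1536-well plates, lung cancer cell lines were dosed by pin tool. Dosing was either single-drug or a fixed anchor-drug dose plus five library-drug doses (not always all listed) in √10 steps. After 5 days, nuclei were stained in one fix-and-stain step and counted on 4× images, and relative viability is the nuclei count of treated wells over that of vehicle wells, given as the median of duplicate plates.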

[2] = system: ABC-1
Outline: as §1

[3] = system: COR-L23
Outline: as §1

[4] = system: EKVX
Outline: as §1

[5] = system: EPLC-272H
Outline: as §1

[6] = system: LOU-NH91
Outline: as §1

[7] = system: NCI-H1563
Outline: as §1

[8] = system: NCI-H1650
Outline: as §1

[9] = system: NCI-H1734
Outline: as §1

[10] = system: NCI-H1793
Outline: as §1

[11] = system: NCI-H1993
Outline: as §1

[12] = system: NCI-H2023
Outline: as §1

[13] = system: NCI-H2085
Outline: as §1

[14] = system: NCI-H2170
Outline: as §1

[15] = system: NCI-H2347
Outline: as §1

[16] = system: NCI-H2405
Outline: as §1

[17] = system: NCI-H3122
Outline: as §1

[18] = system: NCI-H441
Outline: as §1

[19] = system: NCI-H520
Outline: as §1

[20] = system: NCI-H647
Outline: as §1

[21] = system: PC-14
Outline: as §1

[22] = system: RERF-LC-KJ
Outline: as §1

[23] = system: SW 900
Outline: as §1

Clc1ccc(Nc2nnc(Cc3ccncc3)c3ccccc23)cc1 [Vatalanib] + COc1cc2c(Oc3ccc(NC(=O)C4(C(=O)Nc5ccc(F)cc5)CC4)cc3F)ccnc2cc1OCCCN1CCOCC1 [Foretinib] (partner 0.25 µM)
relative viability ([1]; first compound 0.04 µM): 1.17 | relative viability ([1]; first compound 0.1265 µM): 0.976 | relative viability ([1]; first compound 0.4 µM): 1.16 | relative viability ([1]; first compound 1.265 µM): 1.09 | relative viability ([1]; first compound 4 µM): 0.984 | relative viability ([2]; first compound 0.04 µM): 1.32 | relative viability ([2]; first compound 0.1265 µM): 1.11 | relative viability ([2]; first compound 1.265 µM): 1.18 | relative viability ([2]; first compound 4 µM): 0.989 | relative viability ([3]; first compound 0.04 µM): 1.08 | relative viability ([3]; first compound 0.1265 µM): 0.827 | relative viability ([3]; first compound 0.4 µM): 1.15 | relative viability ([3]; first compound 1.265 µM): 1.04 | relative viability ([3]; first compound 4 µM): 0.92 | relative viability ([4]; first compound 0.04 µM): 0.836 | relative viability ([4]; first compound 0.1265 µM): 0.838 | relative viability ([4]; first compound 0.4 µM): 0.551 | relative viability ([4]; first compound 4 µM): 0.727 | relative viability ([5]; first compound 0.04 µM): 0.645 | relative viability ([5]; first compound 0.1265 µM): 0.711 | relative viability ([5]; first compound 0.4 µM): 0.763 | relative viability ([5]; first compound 1.265 µM): 0.669 | relative viability ([5]; first compound 4 µM): 0.841 | relative viability ([6]; first compound 0.04 µM): 0.887 | relative viability ([6]; first compound 0.1265 µM): 0.956 | relative viability ([6]; first compound 1.265 µM): 0.937 | relative viability ([6]; first compound 4 µM): 0.91 | relative viability ([7]; first compound 0.04 µM): 0.92 | relative viability ([7]; first compound 0.1265 µM): 0.874 | relative viability ([7]; first compound 0.4 µM): 0.995 | relative viability ([7]; first compound 1.265 µM): 0.875 | relative viability ([7]; first compound 4 µM): 0.901 | relative viability ([8]; first compound 0.04 µM): 1.22 | relative viability ([8]; first compound 0.1265 µM): 1.05 | relative viability ([8]; first compound 0.4 µM): 0.89 | relative viability ([8]; first compound 1.265 µM): 1 | relative viability ([8]; first compound 4 µM): 1.27 | relative viability ([9]; first compound 0.04 µM): 0.878 | relative viability ([9]; first compound 0.1265 µM): 0.833 | relative viability ([9]; first compound 0.4 µM): 0.912 | relative viability ([9]; first compound 1.265 µM): 0.736 | relative viability ([9]; first compound 4 µM): 0.782 | relative viability ([10]; first compound 0.04 µM): 0.769 | relative viability ([10]; first compound 0.1265 µM): 0.787 | relative viability ([10]; first compound 0.4 µM): 0.686 | relative viability ([10]; first compound 1.265 µM): 0.663 | relative viability ([10]; first compound 4 µM): 0.608 | relative viability ([11]; first compound 0.04 µM): 0.739 | relative viability ([11]; first compound 0.1265 µM): 0.745 | relative viability ([11]; first compound 0.4 µM): 0.806 | relative viability ([11]; first compound 1.265 µM): 0.739 | relative viability ([11]; first compound 4 µM): 0.75 | relative viability ([12]; first compound 0.04 µM): 0.881 | relative viability ([12]; first compound 0.1265 µM): 0.974 | relative viability ([12]; first compound 0.4 µM): 1.04 | relative viability ([12]; first compound 1.265 µM): 0.753 | relative viability ([12]; first compound 4 µM): 1.04 | relative viability ([13]; first compound 0.04 µM): 1.07 | relative viability ([13]; first compound 0.1265 µM): 0.879 | relative viability ([13]; first compound 0.4 µM): 0.854 | relative viability ([13]; first compound 1.265 µM): 0.996 | relative viability ([13]; first compound 4 µM): 0.818 | relative viability ([14]; first compound 0.04 µM): 1.03 | relative viability ([14]; first compound 0.1265 µM): 1.09 | relative viability ([14]; first compound 0.4 µM): 1.04 | relative viability ([14]; first compound 1.265 µM): 0.978 | relative viability ([14]; first compound 4 µM): 1.02 | relative viability ([15]; first compound 0.1265 µM): 0.676 | relative viability ([15]; first compound 0.4 µM): 0.656 | relative viability ([15]; first compound 1.265 µM): 1.05 | relative viability ([15]; first compound 4 µM): 0.785 | relative viability ([16]; first compound 0.04 µM): 1.04 | relative viability ([16]; first compound 0.1265 µM): 1.06 | relative viability ([16]; first compound 1.265 µM): 1.02 | relative viability ([16]; first compound 4 µM): 0.965 | relative viability ([17]; first compound 0.04 µM): 0.997 | relative viability ([17]; first compound 0.1265 µM): 0.978 | relative viability ([17]; first compound 0.4 µM): 0.939 | relative viability ([17]; first compound 1.265 µM): 0.897 | relative viability ([17]; first compound 4 µM): 0.954 | relative viability ([18]; first compound 0.04 µM): 0.994 | relative viability ([18]; first compound 0.1265 µM): 0.977 | relative viability ([18]; first compound 0.4 µM): 1.15 | relative viability ([18]; first compound 1.265 µM): 0.881 | relative viability ([18]; first compound 4 µM): 0.893 | relative viability ([19]; first compound 0.04 µM): 0.875 | relative viability ([19]; first compound 0.1265 µM): 0.662 | relative viability ([19]; first compound 0.4 µM): 0.781 | relative viability ([19]; first compound 1.265 µM): 0.842 | relative viability ([19]; first compound 4 µM): 0.697 | relative viability ([20]; first compound 0.04 µM): 1.12 | relative viability ([20]; first compound 0.1265 µM): 1.2 | relative viability ([20]; first compound 0.4 µM): 1.28 | relative viability ([20]; first compound 1.265 µM): 1.18 | relative viability ([20]; first compound 4 µM): 1.1 | relative viability ([21]; first compound 0.04 µM): 0.981 | relative viability ([21]; first compound 0.1265 µM): 0.855 | relative viability ([21]; first compound 0.4 µM): 0.85 | relative viability ([21]; first compound 1.265 µM): 0.895 | relative viability ([21]; first compound 4 µM): 0.932 | relative viability ([22]; first compound 0.04 µM): 0.889 | relative viability ([22]; first compound 0.1265 µM): 0.927 | relative viability ([22]; first compound 0.4 µM): 0.925 | relative viability ([22]; first compound 1.265 µM): 0.89 | relative viability ([22]; first compound 4 µM): 0.766 | relative viability ([23]; first compound 0.1265 µM): 0.761 | relative viability ([23]; first compound 0.4 µM): 0.942 | relative viability ([23]; first compound 1.265 µM): 0.922 | relative viability ([23]; first compound 4 µM): 0.918
